Measurements taken from US8952157B2, “Apoptosis-inducing agents for the treatment of cancer and immune and autoimmune diseases” (AbbVie Inc., priority 2008, dated 2015).
Like-named read-outs stand apart in the source and are kept apart here.

Target: GST-Bcl-2 (Homo sapiens (Human), UniProt P10415)
Assay: Time Resolved-Fluorescence Resonance Energy Transfer (TR-FRET) Bcl-2 binding assay
Outline: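 Ki values derived from TR-FRET displacement of F-Bak peptide from GST-Bcl-2, detected with Tb-labelled anti-GST antibody (ex 340, em 520/495 nm). Compound dilution series started at 50 μM (2× starting concentration); room-temperature incubation 3 hours.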

[1] = GST-Bcl-2 1 nM, F-Bak peptide probe 100 nM, Tb-anti-GST antibody 1 nM, Ki by Wang's equation

Chain of GST-Bcl-2 (P10415 whole entry): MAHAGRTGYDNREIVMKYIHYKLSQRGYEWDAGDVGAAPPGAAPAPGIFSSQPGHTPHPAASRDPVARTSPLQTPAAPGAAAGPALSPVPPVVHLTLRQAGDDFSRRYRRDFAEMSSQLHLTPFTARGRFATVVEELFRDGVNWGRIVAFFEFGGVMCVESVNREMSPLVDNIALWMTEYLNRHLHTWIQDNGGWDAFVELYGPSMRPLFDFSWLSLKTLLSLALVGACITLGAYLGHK

Compound	Ki [1]	Ki
COCCN1CCC(Nc2ccc(S(=O)(=O)NC(=O)c3ccc(N4CCN(CC5=C(c6ccc(Cl)cc6)CC(C)(C)CC5)CC4)cc3Oc3cccc(Cl)c3)cc2[N+](=O)[O-])CC1 [Example 173, 2-(3-chlorophenoxy)-4-(4-{[2-(4-chlorophenyl)-4,4-dimethylcyclohex-1-en-1-yl]methyl}piperazin-1-yl)-N-[(4-{[1-(2-methoxyethyl)piperidin-4-yl]amino}-3-nitrophenyl)sulfonyl]benzamide]	19 pM	
CN1CCC(Nc2ccc(S(=O)(=O)NC(=O)c3ccc(N4CCN(CC5=C(c6ccc(Cl)cc6)CC(C)(C)CC5)CC4)cc3Oc3ccc4[nH]ccc4c3F)cc2[N+](=O)[O-])CC1 [Example 157, 4-(4-{[2-(4-chlorophenyl)-4,4-dimethylcyclohex-1-en-1-yl]methyl}piperazin-1-yl)-2-[(4-fluoro-1H-indol-5-yl)oxy]-N-({4-[(1-methylpiperidin-4-yl)amino]-3-nitrophenyl}sulfonyl)benzamide]	720 pM	
CC1(C)CCC(CN2CCN(c3ccc(C(=O)NS(=O)(=O)c4ccc(NCC5CCOCC5)c([N+](=O)[O-])c4)c(Oc4cnc(N)c(Br)c4)c3)CC2)=C(c2ccc(Cl)cc2)C1 [Example 350, 2-[(6-amino-5-bromopyridin-3-yl)oxy]-4-(4-{[2-(4-chlorophenyl)-4,4-dimethylcyclohex-1-en-1-yl]methyl}piperazin-1-yl)-N-({3-nitro-4-[(tetrahydro-2H-pyran-4-ylmethyl)amino]phenyl}sulfonyl)benzamide]	< 10 pM	
CN1CCC(Nc2ccc(S(=O)(=O)NC(=O)c3ccc(N4CCN(CC5=C(c6ccc(Cl)cc6)CC(C)(C)CC5)CC4)cc3Oc3cccc(CO)c3)cc2[N+](=O)[O-])CC1 [Example 167, 4-(4-{[2-(4-chlorophenyl)-4,4-dimethylcyclohex-1-en-1-yl]methyl}piperazin-1-yl)-2-[3-(hydroxymethyl)phenoxy]-N-({4-[(1-methylpiperidin-4-yl)amino]-3-nitrophenyl}sulfonyl)benzamide]	1340 pM	
CC1(C)CCC(CN2CCN(c3ccc(C(=O)NS(=O)(=O)c4ccc(NCC5CCOCC5)c([N+](=O)[O-])c4)c(Oc4ccccc4-c4cn[nH]c4)c3)CC2)=C(c2ccc(Cl)cc2)C1 [Example 406, 4-(4-{[2-(4-chlorophenyl)-4,4-dimethylcyclohex-1-en-1-yl]methyl}piperazin-1-yl)-N-({3-nitro-4-[(tetrahydro-2H-pyran-4-ylmethyl)amino]phenyl}sulfonyl)-2-[2-(1H-pyrazol-4-yl)phenoxy]benzamide]	166 pM	
Cc1nc2cc(Oc3cc(N4CCN(Cc5ccccc5-c5ccc(Cl)cc5)CC4)ccc3C(=O)NS(=O)(=O)c3ccc(NCCCN4CCOCC4)c([N+](=O)[O-])c3)ccc2s1 [Example 24, 4-(4-((4′-chloro-1,1′-biphenyl-2-yl)methyl)piperazin-1-yl)-2-((2-methyl-1,3-benzothiazol-5-yl)oxy)-N-((4-((3-morpholin-4-ylpropyl)amino)-3-nitrophenyl)sulfonyl)benzamide]	15000 pM	
CC1(C)CCC(CN2CCN(c3ccc(C(=O)NS(=O)(=O)c4ccc(NC5CCN(CCCc6ccccc6)CC5)c([N+](=O)[O-])c4)c(Oc4cccc(Cl)c4)c3)CC2)=C(c2ccc(Cl)cc2)C1 [Example 172, 2-(3-chlorophenoxy)-4-(4-{[2-(4-chlorophenyl)-4,4-dimethylcyclohex-1-en-1-yl]methyl}piperazin-1-yl)-N-[(3-nitro-4-{[1-(3-phenylpropyl)piperidin-4-yl]amino}phenyl)sulfonyl]benzamide]	549 pM	
CC1(C)CCC(CN2CCN(c3ccc(C(=O)NS(=O)(=O)c4ccc(NCCN5CCOCC5)c([N+](=O)[O-])c4)c(Oc4cccc(Cl)c4F)c3)CC2)=C(c2ccc(Cl)cc2)C1 [Example 150, 2-(3-chloro-2-fluorophenoxy)-4-(4-{[2-(4-chlorophenyl)-4,4-dimethylcyclohex-1-en-1-yl]methyl}piperazin-1-yl)-N-({4-[(2-morpholin-4-ylethyl)amino]-3-nitrophenyl}sulfonyl)benzamide]	759 pM	
CC1(C)CCC(CN2CCN(c3ccc(C(=O)NS(=O)(=O)c4ccc(NC5CCN(C6CCOCC6)CC5)c([N+](=O)[O-])c4)c(Oc4ccnc(N)c4)c3)CC2)=C(c2ccc(Cl)cc2)C1 [Example 273, 2-[(2-aminopyridin-4-yl)oxy]-4-(4-{[2-(4-chlorophenyl)-4,4-dimethylcyclohex-1-en-1-yl]methyl}piperazin-1-yl)-N-({3-nitro-4-[(1-tetrahydro-2H-pyran-4-ylpiperidin-4-yl)amino]phenyl}sulfonyl)benzamide]	516 pM	
CN1CCC(Nc2ccc(S(=O)(=O)NC(=O)c3ccc(N4CCN(CC5=C(c6ccc(Cl)cc6)CC(C)(C)CC5)CC4)cc3Oc3cc(F)c4[nH]ccc4c3)cc2[N+](=O)[O-])CC1 [Example 50, 4-(4-((2-(4-chlorophenyl)-4,4-dimethylcyclohex-1-en-1-yl)methyl)piperazin-1-yl)-2-((7-fluoro-1H-indol-5-yl)oxy)-N-((4-((1-methylpiperidin-4-yl)amino)-3-nitrophenyl)sulfonyl)benzamide]	62 pM	
CC1(C)CCC(CN2CCN(c3ccc(C(=O)NS(=O)(=O)c4ccc(NC(CO)C5CCOCC5)c([N+](=O)[O-])c4)c(Oc4cc5cc[nH]c5cc4F)c3)CC2)=C(c2ccc(Cl)cc2)C1 (stereo not shown) [Example 240, 4-(4-{[2-(4-chlorophenyl)-4,4-dimethylcyclohex-1-en-1-yl]methyl}piperazin-1-yl)-2-[(6-fluoro-1H-indol-5-yl)oxy]-N-({4-[(2-hydroxy-1-tetrahydro-2H-pyran-4-ylethyl)amino]-3-nitrophenyl}sulfonyl)benzamide]	912 pM	
CC1(C)CCC(CN2CCN(c3ccc(C(=O)NS(=O)(=O)c4ccc(NCC5CCOC5)c([N+](=O)[O-])c4)c(Oc4cnc(N)c(Cl)c4)c3)CC2)=C(c2ccc(Cl)cc2)C1 (stereo not shown) [Example 389, 2-[(6-amino-5-chloropyridin-3-yl)oxy]-4-(4-{[2-(4-chlorophenyl)-4,4-dimethylcyclohex-1-en-1-yl]methyl}piperazin-1-yl)-N-({3-nitro-4-[(tetrahydrofuran-3-ylmethyl)amino]phenyl}sulfonyl)benzamide]	< 10 pM	
O=C(NS(=O)(=O)c1ccc(NCC2CCOCC2)c([N+](=O)[O-])c1)c1ccc(N2CCN(Cc3cc(CCN4CCCC4)ccc3-c3ccc(Cl)cc3)CC2)cc1Oc1cccc(Cl)c1 [Example 53, 2-(3-chlorophenoxy)-4-(4-((4′-chloro-4-(2-pyrrolidin-1-ylethyl)-1,1′-biphenyl-2-yl)methyl)piperazin-1-yl)-N-((3-nitro-4-((tetrahydro-2H-pyran-4-ylmethyl)amino)phenyl)sulfonyl)benzamide]	77 pM	
CN(C)CCOc1cccc(Oc2cc(N3CCN(Cc4ccccc4-c4ccc(Cl)cc4)CC3)ccc2C(=O)NS(=O)(=O)c2ccc(NCC3CCOCC3)c([N+](=O)[O-])c2)c1 [Example 39, 4-(4-((4′-chloro-1,1′-biphenyl-2-yl)methyl)piperazin-1-yl)-2-(3-(2-(dimethylamino)ethoxy)phenoxy)-N-((3-nitro-4-((tetrahydro-2H-pyran-4-ylmethyl)amino)phenyl)sulfonyl)benzamide]	19 pM	
CC1(C)CCC(CN2CCN(c3ccc(C(=O)NS(=O)(=O)c4cnc(OCC5CCOCC5)c(C#N)c4)c(Oc4cc5cc[nH]c5cc4F)c3)CC2)=C(c2ccc(Cl)cc2)C1 [Example 301, 4-(4-{[2-(4-chlorophenyl)-4,4-dimethylcyclohex-1-en-1-yl]methyl}piperazin-1-yl)-N-{[5-cyano-6-(tetrahydro-2H-pyran-4-ylmethoxy)pyridin-3-yl]sulfonyl}-2-[(6-fluoro-1H-indol-5-yl)oxy]benzamide]	113 pM	
Cc1n[nH]c2cccc(Oc3cc(N4CCN(CC5=C(c6ccc(Cl)cc6)CC(C)(C)CC5)CC4)ccc3C(=O)NS(=O)(=O)c3ccc(NC4CCN(C)CC4)c([N+](=O)[O-])c3)c12 [Example 55, 4-(4-((2-(4-chlorophenyl)-4,4-dimethylcyclohex-1-en-1-yl)methyl)piperazin-1-yl)-2-((3-methyl-1H-indazol-4-yl)oxy)-N-((4-((1-methylpiperidin-4-yl)amino)-3-nitrophenyl)sulfonyl)benzamide]	90 pM	
CC1(C)CCC(CN2CCN(c3ccc(C(=O)NS(=O)(=O)c4ccc(N[C@@H]5CCN(C6CC6)C5)c([N+](=O)[O-])c4)c(Oc4cnc(N)c(Cl)c4)c3)CC2)=C(c2ccc(Cl)cc2)C1 [Example 370, 2-[(6-amino-5-chloropyridin-3-yl)oxy]-4-(4-{[2-(4-chlorophenyl)-4,4-dimethylcyclohex-1-en-1-yl]methyl}piperazin-1-yl)-N-[(4-{[(3R)-1-cyclopropylpyrrolidin-3-yl]amino}-3-nitrophenyl)sulfonyl]benzamide]	< 10 pM	
CC1(C)CCC(CN2CCN(c3ccc(C(=O)NS(=O)(=O)c4ccc(NC[C@H]5CCCOC5)c([N+](=O)[O-])c4)c(Oc4cc5cc[nH]c5cc4F)c3)CC2)=C(c2ccc(Cl)cc2)C1 [Example 259, 4-(4-{[2-(4-chlorophenyl)-4,4-dimethylcyclohex-1-en-1-yl]methyl}piperazin-1-yl)-2-[(6-fluoro-1H-indol-5-yl)oxy]-N-[(3-nitro-4-{[(3R)-tetrahydro-2H-pyran-3-ylmethyl]amino}phenyl)sulfonyl]benzamide]	165 pM	
CC1(C)CCC(CN2CCN(c3ccc(C(=O)NS(=O)(=O)c4ccc(N[C@H]5CC[C@H](N(C6CC6)C6CC6)CC5)c([N+](=O)[O-])c4)c(Oc4cc5cc[nH]c5cc4F)c3)CC2)=C(c2ccc(Cl)cc2)C1 [Example 334, Trans-4-(4-{[2-(4-chlorophenyl)-4,4-dimethylcyclohex-1-en-1-yl]methyl}piperazin-1-yl)-N-[(4-{[4-(dicyclopropylamino)cyclohexyl]amino}-3-nitrophenyl)sulfonyl]-2-[(6-fluoro-1H-indol-5-yl)oxy]benzamide]		197 pM
